Assay results from patent EP1114151B1, “G PROTEIN-COUPLED RECEPTOR ANTAGONISTS” (Hopital Sainte-Justine, priority 1998, dated 2011).

System: FP receptor
Experiment: porcine eyecup model of ex vivo vasomotricity assay, PGF2α-induced constriction of retinal microvessels
From the text: In order to see if the peptides could inhibit FP function using an ex vivo model, we chose porcine eyecup model, an ex vivo assay of vascular constriction in porcine retinas which we previously described and validated (Li et al., 1996 J. Pharmacol. Expt. Therapeut. 278: 370-377; Li et al., 1997 Am. J. Physiol. 273: R1283-90; Abran et al., 1997 Am. J. Physiol. 272: R995-1001). Since FP receptor densities in newborn vasculature are minimal due to down regulation by high levels of circulating prostaglandins in the perinatal period, the newborn pigs were treated with a prostaglandin synthetase blocker, ibuprofen (30 mg/Kg of bodyweight/ 8 h for 24 h) to increase the density of the receptors as well as their vasomotor effects. By inhibiting circulating prostaglandins; we were able to show potent inhibition of FP receptor-mediated second messenger synthesis as well as FP-mediated vascular constriction in this eyecup model.
The preparations were allowed to stabilize for 30 min.
Vascular diameter was recorded before and 10 min following the topical application of the agent.
Small letters indicate L-amino acids and capital letters indicate D- amino acids. I = isoleucine; L= leucine; G =glycine; H=histidine, R=Arginine; D=Aspartic acid; Y=Tyrosine; […]; A-Alanine; W= Tryptophan; E-Glutamic acid; F= Phenyl alanine; Q=Glutamine; N=Aspargine; P=Proline; S=Serine; X=Cyclohexyl alanine.

%Vasomotor response (of constriction) (100 µM peptide added 30 min before 10^-7 M PGF2α, relative to maximal constriction in the absence of peptide): 36.9%
% inhibition of maximal max. response (100 µM peptide, 10^-7 M PGF2α, calculated as 100 - per cent vasomotor response): 63.1%
Sequence: ILGHKDYK [PCP-13.13, R to K variant of PCP-13]
change of inhibitory activity relative to the parent peptide (in words) (peptides at 100 µM, compared with PCP-13 (PCP-13 and PCP-11 with PCP-8, PCP-12 with PCP-10)): affected the activity of PCP-13 moderately
